Source: the kinase profiling compilation of Christmann-Franck et al. (2016)

Columns and labels:
Assay in all cases: KINOMEscan competition binding
Conditions in all cases: compound 10.0 µM
BLK (human) = BLK (human) (UniProt P51451)
CAMKK2 (human) = CAMKK2 (human) (UniProt Q96RR4)
CDC42BPG (human) = CDC42BPG (human) (UniProt Q6DT37)
CHEK1 (human) = CHEK1 (human) (UniProt O14757)
CLK3 (human) = CLK3 (human) (UniProt P49761)
CSNK1G3 (human) = CSNK1G3 (human) (UniProt Q9Y6M4)
CSNK2A1 (human) = CSNK2A1 (human) (UniProt P68400)
DAPK1 (human) = DAPK1 (human) (UniProt P53355)
[1] = system: EGFR (human), P00533 [L858R]
[2] = system: EGFR (human), P00533 [T790M/L858R]
EPHA7 (human) = EPHA7 (human) (UniProt Q15375)
FGFR2 (human) = FGFR2 (human) (UniProt P21802)
[3] = system: FGFR3 (human), P22607 [G697C]
FGFR4 (human) = FGFR4 (human) (UniProt P22455)
FLT1 (human) = FLT1 (human) (UniProt P17948)
[4] = system: FLT3 (human), P36888 [ITD]
[5] = system: FLT3 (human), P36888 [N841I]
HIPK1 (human) = HIPK1 (human) (UniProt Q86Z02)
[6] = system: KIT (human), P10721 [V559D]
LIMK1 (human) = LIMK1 (human) (UniProt P53667)
MAP2K2 (human) = MAP2K2 (human) (UniProt P36507)
MAP3K1 (human) = MAP3K1 (human) (UniProt Q13233)
MAP3K2 (human) = MAP3K2 (human) (UniProt Q9Y2U5)
MATK (human) = MATK (human) (UniProt P42679)
MERTK (human) = MERTK (human) (UniProt Q12866)
MLTK (human) = MLTK (human) (UniProt Q9NYL2)
MST4 (human) = MST4 (human) (UniProt Q9P289)
NEK1 (human) = NEK1 (human) (UniProt Q96PY6)
NEK7 (human) = NEK7 (human) (UniProt Q8TDX7)
NLK (human) = NLK (human) (UniProt Q9UBE8)
PAK3 (human) = PAK3 (human) (UniProt O75914)
PIP4K2C (human) = PIP4K2C (human) (UniProt Q8TBX8)
PRKCH (human) = PRKCH (human) (UniProt P24723)
PRKX (human) = PRKX (human) (UniProt P51817)
PTK6 (human) = PTK6 (human) (UniProt Q13882)
[7] = system: RET (human), P07949 [V804L]
RIPK1 (human) = RIPK1 (human) (UniProt Q13546)
RPS6KA2 KD1 (human) = RPS6KA2 KD1 (human) (UniProt Q15349)
RPS6KA2 KD2 (human) = RPS6KA2 KD2 (human) (UniProt Q15349)
STK17B (human) = STK17B (human) (UniProt O94768)
TNK2 (human) = TNK2 (human) (UniProt Q07912)
Chain of TNK2 (human) (Q07912 whole entry, looked up): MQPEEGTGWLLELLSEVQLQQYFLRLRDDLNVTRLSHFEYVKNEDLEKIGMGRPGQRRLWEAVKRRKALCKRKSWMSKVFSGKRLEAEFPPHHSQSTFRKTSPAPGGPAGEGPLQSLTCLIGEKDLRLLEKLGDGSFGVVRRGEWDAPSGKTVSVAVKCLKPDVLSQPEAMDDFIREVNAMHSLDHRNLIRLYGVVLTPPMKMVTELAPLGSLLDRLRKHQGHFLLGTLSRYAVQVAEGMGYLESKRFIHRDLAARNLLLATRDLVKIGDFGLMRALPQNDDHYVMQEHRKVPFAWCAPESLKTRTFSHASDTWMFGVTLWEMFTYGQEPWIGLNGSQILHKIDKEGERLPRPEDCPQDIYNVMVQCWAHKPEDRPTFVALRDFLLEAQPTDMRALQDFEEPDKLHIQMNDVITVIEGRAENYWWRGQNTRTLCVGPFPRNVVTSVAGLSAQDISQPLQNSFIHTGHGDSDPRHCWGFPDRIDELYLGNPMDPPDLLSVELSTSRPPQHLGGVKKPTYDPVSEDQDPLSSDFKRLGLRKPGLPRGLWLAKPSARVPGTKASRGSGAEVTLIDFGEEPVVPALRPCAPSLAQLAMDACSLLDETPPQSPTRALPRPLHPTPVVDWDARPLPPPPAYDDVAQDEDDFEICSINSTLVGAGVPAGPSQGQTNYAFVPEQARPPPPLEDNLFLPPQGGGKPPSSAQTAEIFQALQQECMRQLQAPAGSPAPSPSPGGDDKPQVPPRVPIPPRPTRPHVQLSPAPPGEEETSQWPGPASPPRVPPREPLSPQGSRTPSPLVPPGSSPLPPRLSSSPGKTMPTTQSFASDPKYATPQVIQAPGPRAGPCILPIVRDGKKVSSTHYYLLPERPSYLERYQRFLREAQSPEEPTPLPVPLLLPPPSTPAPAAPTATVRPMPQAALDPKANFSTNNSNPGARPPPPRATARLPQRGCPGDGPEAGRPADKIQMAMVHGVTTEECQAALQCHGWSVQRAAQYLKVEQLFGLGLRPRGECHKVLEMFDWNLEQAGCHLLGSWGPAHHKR

Chain of RPS6KA2 KD2 (human) (Q15349 whole entry, looked up): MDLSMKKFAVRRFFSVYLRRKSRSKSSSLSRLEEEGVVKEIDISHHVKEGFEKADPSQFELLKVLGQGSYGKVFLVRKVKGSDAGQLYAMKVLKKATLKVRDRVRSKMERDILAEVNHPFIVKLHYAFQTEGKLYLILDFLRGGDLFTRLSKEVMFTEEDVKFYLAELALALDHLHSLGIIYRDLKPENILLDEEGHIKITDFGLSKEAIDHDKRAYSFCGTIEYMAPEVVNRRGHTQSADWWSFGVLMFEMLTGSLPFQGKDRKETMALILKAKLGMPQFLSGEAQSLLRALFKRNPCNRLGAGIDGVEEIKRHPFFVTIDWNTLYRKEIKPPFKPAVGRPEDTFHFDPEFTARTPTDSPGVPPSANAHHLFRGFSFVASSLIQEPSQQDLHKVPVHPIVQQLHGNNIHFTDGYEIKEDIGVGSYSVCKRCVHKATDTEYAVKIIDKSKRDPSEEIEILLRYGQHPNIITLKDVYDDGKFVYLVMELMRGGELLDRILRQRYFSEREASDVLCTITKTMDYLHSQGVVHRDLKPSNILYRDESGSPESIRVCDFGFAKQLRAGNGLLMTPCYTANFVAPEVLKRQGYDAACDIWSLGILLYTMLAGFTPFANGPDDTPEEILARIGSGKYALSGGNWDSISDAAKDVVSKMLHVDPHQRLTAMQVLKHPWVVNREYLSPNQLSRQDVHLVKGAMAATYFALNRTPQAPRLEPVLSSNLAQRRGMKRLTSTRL
Chain of RPS6KA2 KD1 (human) (Q15349 whole entry, looked up): as above
Chain of NEK1 (human) (Q96PY6 whole entry, looked up): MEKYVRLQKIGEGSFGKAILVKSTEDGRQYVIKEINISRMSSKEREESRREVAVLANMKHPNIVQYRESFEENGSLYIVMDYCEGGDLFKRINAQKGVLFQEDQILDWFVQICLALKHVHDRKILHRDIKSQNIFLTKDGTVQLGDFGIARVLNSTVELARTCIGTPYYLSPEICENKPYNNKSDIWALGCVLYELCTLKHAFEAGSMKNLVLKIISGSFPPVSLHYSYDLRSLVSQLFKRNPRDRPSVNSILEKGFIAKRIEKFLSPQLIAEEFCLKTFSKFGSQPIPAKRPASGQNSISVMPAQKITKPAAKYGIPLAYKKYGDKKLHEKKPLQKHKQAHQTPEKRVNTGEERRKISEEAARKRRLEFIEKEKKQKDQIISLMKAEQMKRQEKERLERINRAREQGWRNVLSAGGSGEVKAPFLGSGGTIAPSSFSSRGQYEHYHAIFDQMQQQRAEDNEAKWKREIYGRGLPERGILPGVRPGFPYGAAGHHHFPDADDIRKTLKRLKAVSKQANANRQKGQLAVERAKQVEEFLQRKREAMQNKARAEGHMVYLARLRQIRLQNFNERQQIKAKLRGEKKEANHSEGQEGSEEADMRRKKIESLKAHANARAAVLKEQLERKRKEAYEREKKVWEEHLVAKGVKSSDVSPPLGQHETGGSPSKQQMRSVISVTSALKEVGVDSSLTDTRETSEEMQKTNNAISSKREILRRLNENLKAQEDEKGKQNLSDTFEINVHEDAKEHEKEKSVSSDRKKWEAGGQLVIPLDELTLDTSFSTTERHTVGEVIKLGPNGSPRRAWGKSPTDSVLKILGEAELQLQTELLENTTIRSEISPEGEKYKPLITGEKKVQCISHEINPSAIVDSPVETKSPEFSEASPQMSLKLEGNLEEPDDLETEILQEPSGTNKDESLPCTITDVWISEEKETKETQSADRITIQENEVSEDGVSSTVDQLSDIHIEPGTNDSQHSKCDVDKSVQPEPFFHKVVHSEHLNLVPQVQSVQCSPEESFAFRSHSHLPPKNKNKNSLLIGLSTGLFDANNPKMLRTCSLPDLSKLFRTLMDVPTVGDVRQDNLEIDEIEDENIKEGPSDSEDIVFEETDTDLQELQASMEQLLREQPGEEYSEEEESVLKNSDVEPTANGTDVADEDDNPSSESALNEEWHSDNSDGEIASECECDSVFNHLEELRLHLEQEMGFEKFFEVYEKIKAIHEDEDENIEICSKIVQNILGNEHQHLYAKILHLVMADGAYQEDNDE
Chain of PTK6 (human) (Q13882 whole entry, looked up): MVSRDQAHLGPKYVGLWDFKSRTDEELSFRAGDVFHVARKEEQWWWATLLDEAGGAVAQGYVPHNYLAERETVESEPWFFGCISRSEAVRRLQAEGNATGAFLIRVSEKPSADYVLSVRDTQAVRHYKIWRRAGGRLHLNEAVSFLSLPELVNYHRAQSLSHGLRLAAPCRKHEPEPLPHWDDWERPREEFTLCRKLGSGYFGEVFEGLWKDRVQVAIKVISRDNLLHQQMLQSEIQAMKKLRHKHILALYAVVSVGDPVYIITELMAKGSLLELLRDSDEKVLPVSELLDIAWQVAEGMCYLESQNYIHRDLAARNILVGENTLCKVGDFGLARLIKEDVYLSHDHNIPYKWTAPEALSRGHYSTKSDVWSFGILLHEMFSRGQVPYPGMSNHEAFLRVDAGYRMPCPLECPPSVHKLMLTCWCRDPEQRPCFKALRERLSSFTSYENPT
Chain of MAP3K1 (human) (Q13233 whole entry, looked up): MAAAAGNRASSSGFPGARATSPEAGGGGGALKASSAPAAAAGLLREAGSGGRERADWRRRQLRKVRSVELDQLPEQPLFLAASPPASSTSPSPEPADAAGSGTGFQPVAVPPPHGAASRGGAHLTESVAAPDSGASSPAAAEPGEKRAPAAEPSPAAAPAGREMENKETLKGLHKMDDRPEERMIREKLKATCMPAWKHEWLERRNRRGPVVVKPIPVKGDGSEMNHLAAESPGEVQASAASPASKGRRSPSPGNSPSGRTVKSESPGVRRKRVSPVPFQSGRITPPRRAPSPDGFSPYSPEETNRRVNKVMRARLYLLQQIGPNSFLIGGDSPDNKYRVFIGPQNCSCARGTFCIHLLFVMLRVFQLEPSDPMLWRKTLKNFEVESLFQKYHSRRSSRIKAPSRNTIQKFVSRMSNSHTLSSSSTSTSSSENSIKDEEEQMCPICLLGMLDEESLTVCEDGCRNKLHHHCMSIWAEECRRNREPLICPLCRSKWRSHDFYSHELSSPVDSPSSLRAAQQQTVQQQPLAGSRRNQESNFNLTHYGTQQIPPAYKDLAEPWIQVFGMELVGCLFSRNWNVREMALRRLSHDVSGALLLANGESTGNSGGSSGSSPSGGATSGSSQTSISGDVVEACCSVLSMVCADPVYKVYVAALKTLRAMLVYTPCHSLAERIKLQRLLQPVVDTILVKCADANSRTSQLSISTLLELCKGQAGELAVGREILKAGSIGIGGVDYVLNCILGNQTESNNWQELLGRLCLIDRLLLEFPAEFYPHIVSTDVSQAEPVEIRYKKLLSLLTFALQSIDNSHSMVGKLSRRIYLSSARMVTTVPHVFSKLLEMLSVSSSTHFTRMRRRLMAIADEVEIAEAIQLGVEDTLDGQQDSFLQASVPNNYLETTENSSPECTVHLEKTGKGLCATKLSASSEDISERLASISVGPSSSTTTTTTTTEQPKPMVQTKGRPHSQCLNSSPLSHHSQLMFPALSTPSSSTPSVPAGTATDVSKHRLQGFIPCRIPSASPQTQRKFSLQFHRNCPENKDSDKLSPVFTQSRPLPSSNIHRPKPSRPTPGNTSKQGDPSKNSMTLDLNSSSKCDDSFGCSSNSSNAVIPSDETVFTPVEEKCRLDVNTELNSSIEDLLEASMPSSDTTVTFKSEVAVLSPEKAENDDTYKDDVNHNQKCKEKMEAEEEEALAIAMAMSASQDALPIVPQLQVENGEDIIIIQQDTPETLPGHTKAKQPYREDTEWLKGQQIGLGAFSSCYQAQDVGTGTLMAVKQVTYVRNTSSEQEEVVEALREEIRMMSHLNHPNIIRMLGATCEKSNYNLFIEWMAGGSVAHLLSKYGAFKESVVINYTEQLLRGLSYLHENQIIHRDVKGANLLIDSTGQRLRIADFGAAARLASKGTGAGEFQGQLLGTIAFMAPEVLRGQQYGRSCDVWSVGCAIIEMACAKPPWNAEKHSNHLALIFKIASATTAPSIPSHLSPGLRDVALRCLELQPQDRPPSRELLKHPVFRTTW

COc1ccc(-c2ccc3c(N4CCOCC4)nc(N4C[C@@H](C)O[C@@H](C)C4)nc3n2)cc1CO
kinase still bound, per cent of control (BLK (human)): 100%
kinase still bound, per cent of control (CAMKK2 (human)): 64%
kinase still bound, per cent of control (CDC42BPG (human)): 65%
kinase still bound, per cent of control (CHEK1 (human)): 99%
kinase still bound, per cent of control (CLK3 (human)): 90%
kinase still bound, per cent of control (CSNK1G3 (human)): 92%
kinase still bound, per cent of control (CSNK2A1 (human)): 96%
kinase still bound, per cent of control (DAPK1 (human)): 95%
kinase still bound, per cent of control [1]: 100%
kinase still bound, per cent of control [2]: 100%
kinase still bound, per cent of control (EPHA7 (human)): 86%
kinase still bound, per cent of control (FGFR2 (human)): 99%
kinase still bound, per cent of control [3]: 77%
kinase still bound, per cent of control (FGFR4 (human)): 100%
kinase still bound, per cent of control (FLT1 (human)): 92%
kinase still bound, per cent of control [4]: 100%
kinase still bound, per cent of control [5]: 82%
kinase still bound, per cent of control (HIPK1 (human)): 97%
kinase still bound, per cent of control [6]: 90%
kinase still bound, per cent of control (LIMK1 (human)): 100%
kinase still bound, per cent of control (MAP2K2 (human)): 92%
kinase still bound, per cent of control (MAP3K1 (human)): 100%
kinase still bound, per cent of control (MAP3K2 (human)): 78%
kinase still bound, per cent of control (MATK (human)): 78%
kinase still bound, per cent of control (MERTK (human)): 100%
kinase still bound, per cent of control (MLTK (human)): 100%
kinase still bound, per cent of control (MST4 (human)): 100%
kinase still bound, per cent of control (NEK1 (human)): 100%
kinase still bound, per cent of control (NEK7 (human)): 100%
kinase still bound, per cent of control (NLK (human)): 96%
kinase still bound, per cent of control (PAK3 (human)): 100%
kinase still bound, per cent of control (PIP4K2C (human)): 87%
kinase still bound, per cent of control (PRKCH (human)): 100%
kinase still bound, per cent of control (PRKX (human)): 100%
kinase still bound, per cent of control (PTK6 (human)): 100%
kinase still bound, per cent of control [7]: 100%
kinase still bound, per cent of control (RIPK1 (human)): 100%
kinase still bound, per cent of control (RPS6KA2 KD1 (human)): 100%
kinase still bound, per cent of control (RPS6KA2 KD2 (human)): 94%
kinase still bound, per cent of control (STK17B (human)): 100%
kinase still bound, per cent of control (TNK2 (human)): 100%
